Data reported in ChEMBL document CHEMBL1140559, “Synthesis and cytotoxic activity of various 5-[alkoxy-(4-nitro-phenyl)-methyl]-uracils in their racemic form” (Bioorg Med Chem Lett, 2007).
The source made the active and inactive calls. The rule behind the calls is not given here.

What was measured:
Format in all cases: functional, cell-based
Conditions in all cases: Homo sapiens
CCRF-CEM [1] = assay: Cytotoxicity against lung resistance protein positive CEM cells
K562-Tax = assay: Cytotoxicity against p-glycoprotein positive K562-Tax cells
CCRF-CEM [2] = assay: Inhibition of DNA synthesis in CEM cells at 5 times IC50
CCRF-CEM [3] = assay: Inhibition of RNA synthesis in CEM cells at IC50
CCRF-CEM [4] = assay: Induction of apoptosis in CEM cells at IC50 after 24 hrs […]
CCRF-CEM [5] = assay: Inhibition of DNA synthesis in CEM cells at IC50
CCRF-CEM [6] = assay: Increase in RNA synthesis in CEM cells at IC50

CCCCCCCCCCOC(c1ccc([N+](=O)[O-])cc1)c1c[nH]c(=O)[nH]c1=O (stereo not given)
Activity (CCRF-CEM [1]): Active
Activity (K562-Tax): Active

CCCCCCOC(c1ccc([N+](=O)[O-])cc1)c1c[nH]c(=O)[nH]c1=O (stereo not given)
Activity (CCRF-CEM [2]): Active
Activity (CCRF-CEM [3]): Active
Activity (CCRF-CEM [4]): Active
Activity (CCRF-CEM [5]): Active

CCCCCCCCCCCOC(c1ccc([N+](=O)[O-])cc1)c1c[nH]c(=O)[nH]c1=O (stereo not given)
Activity (CCRF-CEM [1]): Active
Activity (K562-Tax): Active

CCCCCCCOC(c1ccc([N+](=O)[O-])cc1)c1c[nH]c(=O)[nH]c1=O (stereo not given)
Activity (CCRF-CEM [1]): Active
Activity (K562-Tax): Active
Activity (CCRF-CEM [2]): Active
Activity (CCRF-CEM [6]): Active

CCCCCCCCCOC(c1ccc([N+](=O)[O-])cc1)c1c[nH]c(=O)[nH]c1=O (stereo not given)
Activity (CCRF-CEM [1]): Active
Activity (K562-Tax): Active

CCCCCCCCCCCCOC(c1ccc([N+](=O)[O-])cc1)c1c[nH]c(=O)[nH]c1=O (stereo not given)
Activity (CCRF-CEM [1]): Active
Activity (K562-Tax): Active

CCCCCCCCOC(c1ccc([N+](=O)[O-])cc1)c1c[nH]c(=O)[nH]c1=O (stereo not given)
Activity (CCRF-CEM [1]): Active
Activity (K562-Tax): Active
Activity (CCRF-CEM [2]): Active
Activity (CCRF-CEM [6]): Active
